Experimental data as given in PubChem BioAssay AID256 (DTP/NCI, 2004).
Several values for one entry are separate records, joined by “and”; a condition that tells them apart may be missing. Equal values may be shown once. Toxic doses and inconclusive results are not listed. The calls were made as follows: active = survival T/C of 150% or more; inactive = T/C below 125% in these data.

Test system: CD2F1 mice, L1210 leukemia ip, survival T/C
Test: NCI In Vivo Anticancer Drug Screen. Data for tumor model L1210 Leukemia (intraperitoneal) in CD2F1 (CDF1) mice
Conditions: higher = longer survival
In short: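 Implant tumor; dose compound or vehicle; measure endpoint in both groups; report treated divided by control.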

[1] = endpoint: mean survival time, dose: 100.0 mg/kg/injection, schedule: Q04DX003 (ip), vehicle: saline with Tween-80
[2] = endpoint: mean survival time, dose: 200.0 mg/kg/injection, schedule: Q04DX003 (ip), vehicle: saline with Tween-80
[3] = endpoint: mean survival time, dose: 400.0 mg/kg/injection, schedule: Q04DX003 (ip), vehicle: saline with Tween-80
[4] = endpoint: mean survival time, dose: 50.0 mg/kg/injection, schedule: Q01DX009 (ip), vehicle: saline with Tween-80
[5] = endpoint: mean survival time, dose: 100.0 mg/kg/injection, schedule: Q01DX009 (ip), vehicle: saline with Tween-80
[6] = endpoint: mean survival time, dose: 200.0 mg/kg/injection, schedule: Q01DX009 (ip), vehicle: saline with Tween-80
[7] = endpoint: mean survival time, dose: 100.0 mg/kg/injection, schedule: Q01DX001 (ip), vehicle: saline with Tween-80
[8] = endpoint: mean survival time, dose: 200.0 mg/kg/injection, schedule: Q01DX001 (ip), vehicle: saline with Tween-80
[9] = endpoint: mean survival time, dose: 400.0 mg/kg/injection, schedule: Q01DX001 (ip), vehicle: saline with Tween-80
[10] = endpoint: mean survival time, dose: 400.0 mg/kg/injection, schedule: Q01DX009 (ip), vehicle: saline with Tween-80

Measured: T/C

CN[C@H]1CCc2cc(OC)c(OC)c(OC)c2-c2ccc(OC)c(=O)cc21
inactive: endpoint: mean survival time, dose: 0.63 mg/kg/injection, schedule: Q01DX009 (ip), vehicle: saline 113 % of control and 105 % of control | endpoint: mean survival time, dose: 0.63 mg/kg/injection, schedule: Q01DX009 (ip), vehicle: water 97 % of control and 101 % of control | endpoint: mean survival time, dose: 1.25 mg/kg/injection, schedule: Q01DX009 (ip), vehicle: saline 113 % of control and 116 % of control | endpoint: mean survival time, dose: 1.25 mg/kg/injection, schedule: Q01DX009 (ip), vehicle: water 118 % of control and 108 % of control | endpoint: mean survival time, dose: 2.5 mg/kg/injection, schedule: Q01DX007 (ip), vehicle: saline 121 % of control | endpoint: mean survival time, dose: 2.5 mg/kg/injection, schedule: Q01DX009 (ip), vehicle: saline 121 % of control and 123 % of control and 124 % of control | endpoint: mean survival time, dose: 2.5 mg/kg/injection, schedule: Q01DX009 (ip), vehicle: water 116 % of control and 107 % of control | endpoint: mean survival time, dose: 2.5 mg/kg/injection, schedule: Q03DX003 (ip), vehicle: saline 102 % of control | endpoint: mean survival time, dose: 2.5 mg/kg/injection, schedule: Q04DX003 (ip), vehicle: saline 95 % of control | endpoint: mean survival time, dose: 5.0 mg/kg/injection, schedule: Q01DX007 (ip), vehicle: saline 122 % of control | endpoint: mean survival time, dose: 5.0 mg/kg/injection, schedule: Q01DX009 (ip), vehicle: saline 120 % of control | endpoint: mean survival time, dose: 5.0 mg/kg/injection, schedule: Q01DX009 (ip), vehicle: water 118 % of control | endpoint: mean survival time, dose: 5.0 mg/kg/injection, schedule: Q03DX003 (ip), vehicle: saline 115 % of control | endpoint: mean survival time, dose: 5.0 mg/kg/injection, schedule: Q04DX003 (ip), vehicle: saline 105 % of control | endpoint: mean survival time, dose: 10.0 mg/kg/injection, schedule: Q01DX009 (ip), vehicle: water 124 % of control and 108 % of control | endpoint: mean survival time, dose: 10.0 mg/kg/injection, schedule: Q04DX003 (ip), vehicle: saline 101 % of control | endpoint: median survival time, dose: 0.63 mg/kg/injection, schedule: Q01DX009 (ip), vehicle: saline 114 % of control and 100 % of control | endpoint: median survival time, dose: 1.25 mg/kg/injection, schedule: Q01DX009 (ip), vehicle: saline 114 % of control and 100 % of control | endpoint: median survival time, dose: 2.5 mg/kg/injection, schedule: Q01DX009 (ip), vehicle: saline 121 % of control and 111 % of control
active: endpoint: median survival time, dose: 5.0 mg/kg/injection, schedule: Q01DX009 (ip), vehicle: saline 150 % of control

CC(=O)OC1CCC2(C)C(C1)C(=O)OC1C2CCC2(C)C(C(C)CCCC(C)C)CCC12 (configuration not stated)
inactive: [1] 94 % of control | [2] 94 % of control | [3] 94 % of control

c1ccc(C(OOC(c2ccccc2)(c2ccccc2)c2ccccc2)(c2ccccc2)c2ccccc2)cc1
inactive: [4] 90 % of control | [5] 90 % of control | [6] 90 % of control

CC(=O)N1CCN(C(C)=O)c2ccccc21
inactive: [1] 101 % of control | [2] 101 % of control | [3] 93 % of control

O=Cc1cc(=O)[nH]c2ccccc12
inactive: [1] 96 % of control | [2] 98 % of control | [3] 100 % of control

CCOC(=O)N/N=C/C(Br)=C\c1ccccc1
inactive: endpoint: mean survival time, dose: 12.5 mg/kg/injection, schedule: Q01DX009 (ip), vehicle: saline with Tween-80 97 % of control | endpoint: mean survival time, dose: 25.0 mg/kg/injection, schedule: Q01DX009 (ip), vehicle: saline with Tween-80 92 % of control | [4] 92 % of control

CCCCCCCCCCCCCCCCSC(=S)OCC
inactive: [7] 95 % of control | [5] 96 % of control | [8] 87 % of control | [6] 95 % of control | [9] 95 % of control | [10] 95 % of control

N=C(N)c1ccc(OCCCCOc2ccc(N)cc2)cc1
inactive: endpoint: mean survival time, dose: 50.0 mg/kg/injection, schedule: Q01DX009 (ip), vehicle: Klucel (hydroxypropylcellulose) (HPC) 101 % of control | endpoint: mean survival time, dose: 100.0 mg/kg/injection, schedule: Q01DX009 (ip), vehicle: Klucel (hydroxypropylcellulose) (HPC) 94 % of control | endpoint: mean survival time, dose: 200.0 mg/kg/injection, schedule: Q01DX009 (ip), vehicle: Klucel (hydroxypropylcellulose) (HPC) 119 % of control

COc1cc([N+](=O)[O-])ccc1NC(=O)N1CCCC(C)C1 (configuration not stated)
inactive: [7] 94 % of control and 95 % of control | [5] 88 % of control and 93 % of control | endpoint: mean survival time, dose: 100.0 mg/kg/injection, schedule: Q04DX002 (ip), vehicle: saline with Tween-80 98 % of control | [1] 101 % of control | [8] 86 % of control and 89 % of control | [6] 95 % of control and 106 % of control | endpoint: mean survival time, dose: 200.0 mg/kg/injection, schedule: Q04DX002 (ip), vehicle: saline with Tween-80 98 % of control | [2] 103 % of control | [9] 86 % of control | [10] 88 % of control and 98 % of control | endpoint: mean survival time, dose: 400.0 mg/kg/injection, schedule: Q04DX002 (ip), vehicle: saline with Tween-80 96 % of control | [3] 100 % of control

O=C(NNCN1C(=O)c2ccccc2C1=O)c1ccccc1
inactive: endpoint: mean survival time, dose: 100.0 mg/kg/injection, schedule: Q01DX001 (ip), vehicle: saline 98 % of control | endpoint: mean survival time, dose: 100.0 mg/kg/injection, schedule: Q04DX003 (ip), vehicle: saline 100 % of control | endpoint: mean survival time, dose: 200.0 mg/kg/injection, schedule: Q01DX001 (ip), vehicle: saline 104 % of control | endpoint: mean survival time, dose: 200.0 mg/kg/injection, schedule: Q04DX003 (ip), vehicle: saline 100 % of control | endpoint: mean survival time, dose: 400.0 mg/kg/injection, schedule: Q01DX001 (ip), vehicle: saline 100 % of control | endpoint: mean survival time, dose: 400.0 mg/kg/injection, schedule: Q04DX003 (ip), vehicle: saline 103 % of control
